Test results reported in patent US4415566A, “Cephalosporin derivatives” (Boehringer Ingelheim GmbH, priority 1979, dated 1983).
≈ marks a conversion by molar mass, not a printed value. Where two headings read alike, the source gives them in different places.

Experiments:
[1] = test system: Escherichia coli ATCC 11 775; experiment: Serial dilution test in the microtiter system (MIC), E. Coli ATCC 11775; format: cell-based; conditions: Table IV, E. Coli ATCC 11775, 37° C., 18-20 hours, read-out: MIC
Description: (§1) These tests were performed according to the method of the serial dilution test in the microtiter system. The effect of the substances on bacteriostasis was examined in a fluid medium. […] A nutrient medium of the following composition was used. 10 gm of peptone, 8 gm of meat extract-oxoid, 3 gm of sodium chloride, 2 gm of sec. sodium phosphate were diluted with distilled water to […] (pH 7.2-7.4). Only in the test against streptococci 1% of glucose was added. The age of the primary cultures was about 20 hours. The standardization of the pathogen suspension was effected by using a photometer according to "Eppendorf" (test tube dismeter 14 mm, filter 546 nm) with the aid of the turbidity of a comparison suspension consisting of barium sulfate, this suspension being prepared by addition of 3.0 ml of 1% barium chloride solution to 97 ml of 1% sulfuric acid. After the standardization, streptococcus aronson were further diluted to a concentration of 1:15 and the other microorganisms to a concentration of 1:1500 by means of a sodium chloride solution.
(§2) 16 mg of the test substance were put into a 10 ml-measuring flask and filled up to the mark with the solvent. The further dilution series was standardized with distilled water or the respective solvent.
(§3) The cavities of the microtiter plates were filled with 0.2 ml of nutrient medium. Then, 0.01 ml of the corresponding test substance dilution was added and inoculated with 0.01 ml of the standardized suspension. The bacteria were incubated at 37° C. for 18-20 hours. Control tests merely using the solvent were carried out simultaneously.
(§4) The measurement was carried out macroscopically to determine the minimal inhibitory (threshold) concentration, i.e. the lower still bacteriostatically effective concentration.
(§5) Staphylococcus aureus SG 511, Escherichia coli ATCC 11 775, Pseudomonas aeruginosa Hamburgensis and Pseudomonas aeruginosa Walter, Serratia marcescens ATCC 13880, Klebsiella pneumoniae ATCC 10 031 and 272, Proteus mirabilis Hamburgensis, Proteus rettgeri, Enterbacter cloaceae ATCC 13 047 and E. Coli R+TEM (β-lactamase carrier).

[2] = test system: Pseudomonas aeruginosa Hamburgensis; experiment: Serial dilution test in the microtiter system (MIC), Pseud. aerug. Hbg.; format: cell-based
Description: as §1, §2, §3, §4, §5

[3] = test system: Pseudomonas aeruginosa Walter; experiment: Serial dilution test in the microtiter system (MIC), Pseud. aerug. Walter; format: cell-based
Description: as §1, §2, §3, §4, §5

[4] = test system: Serratia marcescens ATCC 13880; experiment: Serial dilution test in the microtiter system (MIC), Serrat. marcesc. ATCC 13880; format: cell-based
Description: as §1, §2, §3, §4, §5

[5] = test system: Klebsiella pneumoniae ATCC 10 031; experiment: Serial dilution test in the microtiter system (MIC), Klebs. pneum. ATCC 10031; format: cell-based
Description: as §1, §2, §3, §4, §5

[6] = test system: Klebsiella pneumoniae 272; experiment: Serial dilution test in the microtiter system (MIC), Klebs. pneum. 272; format: cell-based
Description: as §1, §2, §3, §4, §5

[7] = test system: Proteus mirabilis Hamburgensis; experiment: Serial dilution test in the microtiter system (MIC), Prot. mirabilis; format: cell-based; conditions: Table IV, Prot. mir. Hbg., 37° C., 18-20 hours, read-out: MIC
Description: as §1, §2, §3, §4, §5

Proteus rettgeri = experiment: Serial dilution test in the microtiter system (MIC), Prot. rettgeri; format: cell-based; conditions: Providencia rettgeri; Table IV; Prot. rettg.; 37° C., 18-20 hours; read-out: MIC
Description: as §1, §2, §3, §4, §5

[8] = test system: Enterbacter cloaceae ATCC 13 047; experiment: Serial dilution test in the microtiter system (MIC), Eb. cloaceae ATCC 13047; format: cell-based
Description: as §1, §2, §3, §4, §5

[9] = test system: Staphylococcus aureus SG 511; experiment: Serial dilution test in the microtiter system (MIC), S. aureus SG 511; format: cell-based
Description: as §1, §2, §3, §4, §5

E. coli ATCC 11775 = experiment: In vivo activity in mice, E. coli infection; parameters: species or system Female NMRI mice; conditions: Escherichia coli, ATCC11775, iPSC, sc, 168 h; E. coli infection i.p.; s.c. administration; per dose; observation 7 days; read-out: ED50 (dose at which 50% of the animals survived)
Description: (§6) A number of compounds of this invention were tested in vivo in mice against experimental infections. Bacteria E. coli ATCC 11775 and Psuedomonas aeruginosa Walter were used as pathogens. An intraperitoneal infection with 0.2 ml of a 5% suspension of the bacteria was induced. This corresponds to about 2×10^6 E. Coli germs and 8×10^5 pseudomonas germs/mouse. […] The groups with E. coli infection were treated with the test compound three times on the first day (1, 4, and 7 hours post infectionem) and for two days thereafter twice a day. The groups with the pseudomonas infection were treated with the test compound 6 times on the first day (1, 3, 6, 9, 12 and 15 hours post infectionem) and for two days thereafter twice a day. The observation time was in both cases 7 days. The results of these tests with representatives of the penicillins and cephalosporins according to the invention are shown in the following table: […]

[10] = test system: Psuedomonas aeruginosa Walter; experiment: In vivo activity in mice, Pseudomonas infection; parameters: species or system Female NMRI mice; conditions: for ED50: Mus musculus, iPSC, sc, 168 h, Pseudomonas infection i.p., s.c. administration, per dose, observation 7 days, read-out: ED50 (dose at which 50% of the animals survived)
Description: as §6

[11] = ATCC13880, Table IV, Serr. marcesc. ATCC 13880, 37° C., 18-20 hours, read-out: MIC
[12] = Table IV, Klebs. pneum. ATCC 10031, 37° C., 18-20 hours, read-out: MIC
[13] = Table IV, Klebs. pneum. 272, 37° C., 18-20 hours, read-out: MIC
[14] = Table IV, Eb. cloaceae, 37° C., 18-20 hours, read-out: MIC
[15] = SG511, Table IV, S. aureus SG 511, 37° C., 18-20 hours, read-out: MIC

SMILES	MIC [1] [µg/mL]	MIC [2] [µg/mL]	MIC [3] [µg/mL]	MIC [4, 11] [µg/mL]	MIC [5, 12] [µg/mL]	MIC [6, 13] [µg/mL]	MIC [7] [µg/mL]	MIC (Proteus rettgeri) [µg/mL]	MIC [8, 14] [µg/mL]	MIC [9, 15] [µg/mL]	ED50 (E. coli ATCC 11775) [mg/kg]	ED50 [10] [mg/kg]	MIC [6]; 272 [µg/mL]	animals died ([10]; Pseudomonas infection, s.c., at 200 mg/kg)	MIC [5] [µg/mL]	MIC ([2]; Table IV, Pseud. aerug. Hbg., 37° C., 18-20 hours, read-out: MIC) [µg/mL]	MIC ([4]; ATCC13880) [µg/mL]	MIC [8] [µg/mL]	MIC ([9]; SG511) [µg/mL]
Cn1nnnc1SCC1=C(C(=O)O)N2C(=O)[C@@H](NC(=O)[C@H](NC(=O)Nc3cnc(NCc4ccco4)nc3O)c3ccc(O)cc3)[C@H]2SC1 [J]	0.25 (≈ 0.352 µM)	8 (≈ 11.3 µM)	4 (≈ 5.64 µM)	0.25 (≈ 0.352 µM)	0.5 (≈ 0.704 µM)	0.5 (≈ 0.704 µM)	0.12 (≈ 0.169 µM)	0.5 (≈ 0.704 µM)	0.5 (≈ 0.704 µM)	0.5 (≈ 0.704 µM)	0.3	6.3							
Cn1nnnc1SCC1=C(C(=O)O)N2C(=O)[C@@H](NC(=O)[C@H](NC(=O)Nc3cnc(NCc4cccs4)nc3O)c3ccc(O)cc3)[C@H]2SC1 [N]	0.25 (≈ 0.344 µM)	8 (≈ 11 µM)	4 (≈ 5.51 µM)	0.25 (≈ 0.344 µM)	0.25 (≈ 0.344 µM)	0.25 (≈ 0.344 µM)	0.12 (≈ 0.165 µM)	0.5 (≈ 0.689 µM)	0.25 (≈ 0.344 µM)	0.5 (≈ 0.689 µM)	0.6								
CO/N=C(\C(=O)N[C@@H]1C(=O)N2C(C(=O)O)=C(COC(N)=O)CS[C@H]12)c1ccco1 [Cefuroxim, reference compound]	8 (≈ 18.9 µM)			8 (≈ 18.9 µM)	2 (≈ 4.71 µM)		0.5 (≈ 1.18 µM)	2 (≈ 4.71 µM)	32 (≈ 75.4 µM)	1 (≈ 2.36 µM)	37	> 200	4 (≈ 9.43 µM)	all animals died					
Cn1nnnc1SCC1=C(C(=O)O)N2C(=O)[C@@H](NC(=O)[C@H](NC(=O)Nc3cnc(NCc4cccnc4)nc3O)c3ccc(O)cc3)[C@H]2SC1 [L]				0.25 (≈ 0.347 µM)		0.25 (≈ 0.347 µM)		0.5 (≈ 0.694 µM)	0.25 (≈ 0.347 µM)	0.5 (≈ 0.694 µM)	0.2	4.6			0.25 (≈ 0.347 µM)				
CC(=O)OCC1=C(C(=O)O)N2C(=O)[C@@H](NC(=O)[C@H](NC(=O)Nc3cnc(NCc4ccco4)nc3O)c3ccc(O)cc3)[C@H]2SC1 [K]	0.5 (≈ 0.765 µM)		8 (≈ 12.2 µM)		1 (≈ 1.53 µM)	1 (≈ 1.53 µM)	0.25 (≈ 0.382 µM)	1 (≈ 1.53 µM)								16 (≈ 24.5 µM)	2 (≈ 3.06 µM)	4 (≈ 6.12 µM)	1 (≈ 1.53 µM)
Cc1ncc(CNc2ncc(NC(=O)N[C@@H](C(=O)N[C@@H]3C(=O)N4C(C(=O)O)=C(CSc5nnnn5C)CS[C@H]34)c3ccc(O)cc3)c(O)n2)cn1 [P]	0.12 (≈ 0.163 µM)	4 (≈ 5.44 µM)	4 (≈ 5.44 µM)	0.25 (≈ 0.34 µM)	0.25 (≈ 0.34 µM)	0.5 (≈ 0.68 µM)	0.06 (≈ 0.0815 µM)	0.25 (≈ 0.34 µM)	0.5 (≈ 0.68 µM)	0.25 (≈ 0.34 µM)									
